This is an account of results in US5958881A, “Composition containing VIP for injection and a method of enhancing visualization of tissues during medical procedures” (priority 1992, dated 1999).

Read-outs that look alike come from different tables or passages of the source.

How the values of data set [1] were obtained: During the period of observation, vital signs (blood pressure and pulse) and symptoms were continuously recorded. The protocol was such that if the blood pressure dropped by more than 20 mm Hg systolic or diastolic or the pulse increased by more than 30 beats per minute for 2 minutes, intravenous saline was to be administered and the study terminated.

The conditions of data set [2]: in vivo; cited from earlier work.
Data set [3] has as its system gastrointestinal motility. Conditions: controlled studies; cited from earlier work.
Data set [4] relates to gastroduodenal motility. Conditions: cited from earlier work.
Data set [5] concerns antroduodenal activity. The note with it: 1 mg IV followed by 2 mg IV over 2 hours; cited from earlier work.
Data set [6] relates to opossum duodenum. Conditions: cited from earlier work.
The conditions of data set [7]: dose dependent; cited from earlier work.

As for `CC[C@H](C)[C@H](NC(=O)[C@H](CO)NC(=O)[C@H](CC(N)=O)NC(=O)[C@H](CC(C)C)NC(=O)[C@H](Cc1ccc(O)cc1)NC(=O)[C@H](CCCCN)NC(=O)[C@H](CCCCN)NC(=O)[C@@H](NC(=O)[C@H](C)NC(=O)[C@H](CCSC)NC(=O)[C@H](CCC(N)=O)NC(=O)[C@H](CCCCN)NC(=O)[C@H](CCCN=C(N)N)NC(=O)[C@H](CC(C)C)NC(=O)[C@H](CCCN=C(N)N)NC(=O)[C@@H](NC(=O)[C@H](Cc1ccc(O)cc1)NC(=O)[C@H](CC(N)=O)NC(=O)[C@H](CC(=O)O)NC(=O)[C@@H](NC(=O)[C@H](Cc1ccccc1)NC(=O)[C@@H](NC(=O)[C@H](C)NC(=O)[C@H](CC(=O)O)NC(=O)[C@H](CO)NC(=O)[C@@H](N)Cc1c[nH]cn1)C(C)C)[C@@H](C)O)[C@@H](C)O)C(C)C)C(=O)N[C@@H](CC(C)C)C(=O)N[C@@H](CC(N)=O)C(N)=O` [VIP, vasoactive intestinal peptide], in data set [1] (criterion: blood pressure drop >20 mm Hg or pulse increase >30 beats per minute for 2 minutes), the “need to terminate the study” value was “none of the three patients”. The “effects on blood pressure and pulse” value in data set [1] (first patient, higher dose level (20 ng/kg)) is on record as “not seen”. Also, the “effect on blood pressure and pulse” value in data set [1] (first patient, initial dose of 5 ng VIP per kg) was “slight decrease in systolic pressure and increase in pulse”. In data set [1] (gastroparetic dose), the “effect on blood pressure” value is given as “without a significant effect”. The “side effects of nausea and vomiting” value in data set [1] (method of the invention) was “free of the negative side effects of nausea and vomiting”. Also, the “change in blood pressure or pulse” value in data set [1] (second patient, any of the dosages tested (5, 20, 100 ng/kg)) is reported as “no significant change”; in data set [1] (third patient, any dose of VIP administered), “no significant change”. For the same molecule, the “adverse reactions such as nausea or vomiting” value in data set [1] (three patients, 5-300 ng/kg IV) is given as “None of the three patients”.
Take `CN1[C@@H]2CC[C@H]1C[C@@H](OC(=O)C(CO)c1ccccc1)C2` (some centres unmarked) [atropine]: in data set [2], the cardiac arrhythmias result was “increased risk”; the undesirable side effects entry is “blurred vision, headache, and urinary retention”. Further, the “improvement in patient tolerance or facilitation of endoscopy” value in data set [3] was “failed to demonstrate any beneficial effects”.
As for glucagon, the gastroduodenal motility entry in data set [4] (dose-dependent) is “variable reduction”. For the same molecule, the minimally effective dose in data set [4] (reduction in gastroduodenal motility) is recorded as 0.5 mg. Further, in data set [5], the “cycle length and time between contractile activity in the duodenum” value is on record as “significantly increased”; the mean pressure period result is listed as “decreased”. The “effect on duodenum muscle” value in data set [6] is “stimulated relaxation”. For the same molecule, the “dose at which nausea and vomiting can appear” value in data set [7] is given as 1 mg.
